Reference: paper PMC9546217, “Exploring novel nitrofuranyl sulfonohydrazides as anti‐Leishmania and anti‐cancer agents: Synthesis, in vitro efficacy and hit identification” (Chemical Biology & Drug Design, 2022)
Where two headings read alike, the source gives them in different places.

Tests used:
[1] = tested on: Clone 15 HL‐60 promyelocytic leukemia cells; test: Anticancer assay (resazurin); format: cell-based, human; details: for IC50: read-out: Anticancer activity, IC50 ± SD, Clone 15 HL‐60; for Selectivity Index SI1 (anticancer): IC50 Vero (Table 2)/IC50 Clone 15 HL‐60; for Preliminary screening, growth inhibition, Clone 15 HL‐60: cutoff 50% growth inhibition at 10 μM
Procedure: (§1) The anticancer activities of synthesized compounds were evaluated using a resazurin‐based assay (Czekanska, [2011]). Accordingly, a screening method similar to that of the cytotoxicity assay was used to screen for anticancer activity, using human melanoma (A375), promyelocytic leukemia (Clone 15 HL‐60), lung cancer (A549), and breast cancer (MCF7) cells. The culture and assay methods are provided in the Supinfo S1.
(§2) The potential anticancer activities of synthesized compounds were screened using the resazurin assay. ^5 Breast adenocarcinoma (MCF7, ATCC® HTB-22™) and human melanoma (A375, ATCC® CRL-1619™) cells were cultured in Hyclone Dulbecco's modified Eagle’s medium with high glucose (Separations) supplemented with 10 % fetal bovine serum (FBS) (Thermofisher Scientific) and 1 % L-glutamine, penicillin-streptomycin and non-essential amino acids (Lonza). Human lung carcinoma (A549, ATCC®, CCL-185™) cells were cultured in Ham’s F12K medium supplemented with 10% FBS and 1% L-glutamine, penicillin-streptomycin and non-essential amino acids. Human promyelocytic leukemia (Clone 15 HL-60, ATCC® CRL-1946™) cells were cultured in RPMI-1640 medium (Sigma Aldrich) supplemented with 10% FBS and 1% penicillin-streptomycin. The cell lines were maintained in a humidified atmosphere at 37 °C and 5% CO2.
(§3) For the resazurin assay, 96 well plates were prepared with 100 μL of 100 000 cells/mL MCF7 cell suspension, 100 μL of 50 000 cells/mL A375 cell suspension, 100 μL of 25 000 cells/mL A549 cell suspension, or 50 μL of 50 000 cells/mL HL-60 cell suspension. The MCF7, A375 and A549 cell plates were incubated for 24 hours to allow adherence of the cells to the plate surface, after which the growth medium is replaced with 100 μL medium containing compounds. […] The cell lines were treated with: (i) parthenolide (Sigma Aldrich) (positive control); (ii) growth medium and solvent (negative control to compensate for possible solvent effects); (iii) growth medium and experimental compound solutions. […] Blanks contained growth medium without cells. The treated plates were incubated for 48 hours.
(§4) To initiate the resazurin assay, 50 μL of sterile-filtered resazurin sodium salt (Sigma Aldrich) solution (0.01 % in PBS) was added and the plates incubated for 2 hours (MCF7, A375 and A549 cells) or 24 hours (HL-60 cells). Absorbance was measured at 570 and 600 nm using the Thermofisher Scientific GO Multiscan plate reader. Data analysis was performed for each biological replicate using SkanIt 4.0 Research Edition software. Further data analysis, calculations and IC50 determinations were identical to that of the antileishmanial and cytotoxicity assays.
(§5) For the final IC50 of each compound, the mean IC50 of the biological replicates were calculated with standard deviation (SD).

[2] = tested on: A375 melanoma cells; test: Anticancer assay (resazurin); format: cell-based, human; details: for IC50: n = 3, read-out: Anticancer activity, IC50 ± SD, A375
Procedure: as §1, §2, §3, §4, §5

[3] = tested on: L. major strain IR‐173 amastigotes; test: Anti-amastigote assay (intramacrophage, THP-1 host, resazurin); format: cell-based; details: for Specificity index SpI1: L. major IR‐173: IC50 promastigote/IC50 amastigote; for IC50: read-out: Antileishmanial activity, IC50 ± SD, Amastigote; for Selectivity index SI2: L. major: IC50 THP‐1/IC50 amastigote
Procedure: (§6) The activities of synthesized compounds against the intramacrophage parasites of the three Leishmania strains were evaluated using a modified, resazurin‐based method (Jain et al., [2012]; Njanpa et al., [2021]). Suspension cultures of human acute monocytic leukemia (THP‐1) cells were maintained in RPMI‐1640 medium (Sigma Aldrich) supplemented with 10% FBS and 1% penicillin–streptomycin, at 37°C and 5% CO2 in a humidified atmosphere. Duplicate 96‐well plates (for respective anti‐amastigote and cytotoxicity assays) were seeded with 200 μl of a 2.5 × 10^5 cells/ml suspension treated with 25 ng/ml phorbol 12‐myristate 13‐acetate (PMA), followed by 48‐h incubation to promote differentiation into adherent macrophages.
(§7) For the anti‐amastigote assay, differentiated plates were carefully washed with PBS, followed by the addition of 200 μl of stationary phase promastigotes in RPMI 1640 medium with 2% FBS. An MOI of 30:1 was used for all three Leishmania strains. The parasite‐treated plates were incubated for 24 h at 32°C (L. major) or 37°C (L. donovani) and 5% CO2 to promote infection of the macrophages. […] Blanks were represented by growth medium without cells, as well as parasite‐free THP‐1 cells. The treated plates were incubated for 72 h.
(§8) After incubation, the plates were gently washed three times with PBS to remove any remaining extracellular parasites. The wells were then treated with 20 μl of 0.05% sodium dodecyl sulfate in PBS for 30 s to lyse the host macrophages. Lysis was terminated by adding 180 μl promastigote growth medium with 10% FBS. To initiate the resazurin assay, 10 μl of resazurin solution (0.025% in PBS) was added to all wells and the plates were incubated for 24 h at 32°C (L. major) or 37°C (L. donovani) and 5% CO2. Absorbance measurements, calculations, and IC50 determinations were performed as described for the antipromastigote assay (Supinfo S1).

[4] = tested on: L. donovani strain 1S amastigotes; test: as above; format: cell-based; details: for IC50: L. donovani 1S, read-out: 1S IC50 ± SD, Amastigote; for Selectivity index SI4: L. donovani 1S: IC50 THP‐1/IC50 amastigote; for Selectivity index SI3: L. donovani 1S: IC50 Vero/IC50 amastigote; for Specificity index SpI2: L. donovani 1S: IC50 promastigote/IC50 amastigote
Procedure: as §6, §7, §8

[5] = tested on: L. donovani strain 9515 amastigotes; test: as above; format: cell-based; details: for IC50: L. donovani 9515, read-out: 9515 IC50 ± SD, Amastigote; for Selectivity index SI6: L. donovani 9515: IC50 THP‐1/IC50 amastigote; for Selectivity index SI5: L. donovani 9515: IC50 Vero/IC50 amastigote; for Specificity index SpI3: L. donovani 9515: IC50 promastigote/IC50 amastigote
Procedure: as §6, §7, §8

[6] = Leishmania major, THP-1, L. major IR‐173

Row | Molecule | IC50 ([1]; Homo sapiens, HL-60, n = 3) [µM] | Selectivity Index SI1 (anticancer) [1] | IC50 ([1]; n = 3) [µM] | IC50 ([2]; Homo sapiens, A-375) [µM] | IC50 [3, 6] [µM] | IC50 ([4]; Leishmania donovani, THP-1) [µM] | IC50 ([5]; Leishmania donovani, THP-1) [µM] | Preliminary screening, growth inhibition, Clone 15 HL‐60 [1] | Selectivity index SI6 [5] | Selectivity index SI5 [5] | Specificity index SpI3 [5] | Selectivity index SI4 [4] | Selectivity index SI3 [4] | Specificity index SpI2 [4] | other results
1 | CC(C)c1ccc(S(=O)(=O)N/N=C/c2ccc([N+](=O)[O-])o2)cc1 [2d, (E)-4-Isopropyl-N'-[(5-nitrofuran-2-yl)methylene]benzenesulfonohydrazide] | < 10 | 3 | 7.85 ± 0.38 | > 10 | < 10 | > 10 | > 10 |  |  |  |  |  |  |  | Specificity index SpI1 [3]: 0.57; IC50 ([3]; L. major IR‐173): 8.3 ± 0.78 µM; Selectivity index SI2 [3]: 11
2 | (E)-2,4,6-Trimethyl-N'-[(5-nitrofuran-2-yl)methylene]benzenesulfonohydrazide [2e] |  |  | > 10 |  |  |  |  | qualified | > 16 | 6 | 0.65 |  |  |  | IC50 [2]: > 10 µM; IC50 ([3]; L. major IR‐173): > 10 µM; IC50 [4]: > 10 µM; IC50 [5]: 6.14 ± 0.83 µM
3 | Cc1ccc(S(=O)(=O)N/N=C/c2ccc([N+](=O)[O-])o2)cc1 [2c, (E)-4-Methyl-N'-[(5-nitrofuran-2-yl)methylene]benzenesulfonohydrazide] | > 10 |  |  | > 10 | > 10 | > 10 | > 10 | qualified |  |  |  |  |  |  | 
4 | CC(C)(C)c1ccc(S(=O)(=O)N/N=C/c2ccc([N+](=O)[O-])o2)cc1 [2f, (E)-4-(tert-Butyl)-N'-[(5-nitrofuran-2-yl)methylene]benzenesulfonohydrazide] |  | 6 |  | > 10 | > 10 | 6.36 | 9.62 ± 1.15 |  | 9 | 3 | 0.36 | 13 | 5 | 0.83 | 
5 | O=C1CN(/N=C/c2ccc([N+](=O)[O-])o2)C(=O)N1 [NFT, nitrofurantoin, reference compound] | > 10 |  |  | > 10 | > 10 | > 10 | 8.56 ± 1.95 |  |  |  |  |  |  |  | 
6 | O=C(N/N=C/c1ccc([N+](=O)[O-])o1)c1ccc(O)cc1 [NFX, Nifuroxazide, reference compound] | 8.97 ± 0.47 | > 11 |  | > 10 | > 10 | > 10 |  |  | > 14 | > 14 |  |  |  |  | 
7 | O=[N+]([O-])c1ccc(/C=N/NS(=O)(=O)c2cccc3c2OCCO3)o1 [2l, (E)-N'-[(5-Nitrofuran-2-yl)methylene]-2,3-dihydrobenzo[b][1,4]dioxine-5-sulfonohydrazide] | > 10 |  |  | > 10 | > 10 | 6.36 | 7.85 ± 0.21 |  | > 13 | 5 | 0.92 | > 16 | 6 | 1.45 | 
8 | O=[N+]([O-])c1ccc(/C=N/NS(=O)(=O)c2ccc(-c3ccccc3)cc2)o1 [2h, (E)-N'-[(5-Nitrofuran-2-yl)methylene]-(1,1'-biphenyl)-4-sulfonohydrazide] |  | 17 |  | 8.05 ± 0.57 | > 10 | 2.94 ± 0.3 | 6.29 ± 0.62 | qualified | 8 | 3 | 0.24 | 17 | 6 | 0.49 | Selectivity index SI2 (anticancer) ([2]; IC50 Vero (Table 2)/IC50 A375): 2; Preliminary screening, growth inhibition, A375 ([2]; cutoff 50% growth inhibition at 10 μM): qualified
9 | O=Cc1ccc([N+](=O)[O-])o1 [NFA, 5‐nitro‐2‐furaldehyde, reference compound] | < 10 | 2 | 9.45 ± 0.61 | > 10 | 8.35 ± 0.89 | > 10 | 8.56 ± 0.65 |  | 9 | 3 |  |  |  |  | Specificity index SpI1 [3]: 0.87; Selectivity index SI2 [3]: 10; Selectivity index SI1 ([3]; L. major: IC50 Vero/IC50 amastigote): 3
